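Exposure lasted 48 hours, with cells grown in 96-well plates and compounds tested at five concentrations. GI50: concentration for 50% inhibition of growth.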 The source made the active and inactive calls. Cut-off read from the data, not from the text of the source: active = GI50 up to about 1.1 µM and inactive = higher.
Assays:
Assay in all cases: inhibition of tumour cell growth, NCI panel, 48 h
MOLT-4 = tested on: MOLT-4
K562 = tested on: K562
HCC 2998 = tested on: HCC 2998
HL-60 = tested on: HL-60
M14 = tested on: M14
U-251 = tested on: U-251
NCI-H226 = tested on: NCI-H226
A549 = tested on: A549
EKVX = tested on: EKVX
OVCAR-5 = tested on: OVCAR-5
COLO 205 = tested on: COLO 205
NCI-H23 = tested on: NCI-H23
SK-OV-3 = tested on: SK-OV-3
HCT-116 = tested on: HCT-116
KM12 = tested on: KM12
IGROV-1 = tested on: IGROV-1
SK-MEL-2 = tested on: SK-MEL-2
CAKI-1 = tested on: CAKI-1

Row | Structure (SMILES) | GI50 (MOLT-4) | GI50 (K562) | GI50 (HCC 2998) | GI50 (HL-60) | GI50 (M14) | GI50 (U-251) | GI50 (NCI-H226) | GI50 (A549) | GI50 (EKVX) | GI50 (OVCAR-5) | GI50 (COLO 205) | GI50 (NCI-H23) | GI50 (SK-OV-3) | GI50 (HCT-116) | GI50 (KM12) | GI50 (IGROV-1) | GI50 (SK-MEL-2) | GI50 (CAKI-1)
1 | Cc1cc(S(=O)(=O)Nc2nc(N)nc(N(C)C)n2)c(SC(C(=O)O)c2ccccc2)cc1Cl (centres undefined) | > 10 µM (inactive) | > 10 µM (inactive) | > 10 µM (inactive) | > 10 µM (inactive) | > 10 µM (inactive) | > 10 µM (inactive) | > 10 µM (inactive) | > 10 µM (inactive) | > 10 µM (inactive) | > 10 µM (inactive) | > 10 µM (inactive) | > 10 µM (inactive) | > 10 µM (inactive) | > 10 µM (inactive) | > 10 µM (inactive) | > 10 µM (inactive) | > 10 µM (inactive) | > 10 µM (inactive)
2 | C=Nc1ccc([N+](=O)[O-])cc1 | > 100 µM (inactive) | > 44.6 µM (inactive) | > 100 µM (inactive) | > 62.7 µM (inactive) | > 100 µM (inactive) | > 100 µM (inactive) | > 100 µM (inactive) | > 100 µM (inactive) | > 100 µM (inactive) | > 100 µM (inactive) | > 100 µM (inactive) | > 100 µM (inactive) | > 100 µM (inactive) | > 100 µM (inactive) | > 100 µM (inactive) | > 100 µM (inactive) | > 100 µM (inactive) | > 100 µM (inactive)
3 | CCOC(=O)C(C)(c1cn(C)c2ccccc12)c1cn(C)c2ccccc12 | > 100 µM (inactive) | 66.2 µM (inactive) | > 100 µM (inactive) | > 100 µM (inactive) | > 100 µM (inactive) | 57.5 µM (inactive) | 30.6 µM (inactive) | 81.5 µM (inactive) | > 100 µM (inactive) | > 100 µM (inactive) | – | 44.7 µM (inactive) | > 100 µM (inactive) | 34.3 µM (inactive) | > 100 µM (inactive) | > 100 µM (inactive) | > 100 µM (inactive) | 41.6 µM (inactive)
4 | CCc1cccc(C)c1NC(=O)C(=O)Cc1nc2ccccc2s1 | > 100 µM (inactive) | > 100 µM (inactive) | > 100 µM (inactive) | > 100 µM (inactive) | > 100 µM (inactive) | > 100 µM (inactive) | > 100 µM (inactive) | > 100 µM (inactive) | > 100 µM (inactive) | – | > 100 µM (inactive) | > 100 µM (inactive) | > 100 µM (inactive) | > 100 µM (inactive) | > 100 µM (inactive) | 0.444 µM (active) | > 100 µM (inactive) | > 100 µM (inactive)
5 | O=C1CN(C(=O)c2ccccc2)Cc2[nH]c3ccccc3c21 | > 100 µM (inactive) | > 100 µM (inactive) | > 100 µM (inactive) | > 100 µM (inactive) | > 100 µM (inactive) | > 100 µM (inactive) | > 100 µM (inactive) | > 100 µM (inactive) | > 100 µM (inactive) | > 100 µM (inactive) | > 100 µM (inactive) | > 100 µM (inactive) | > 100 µM (inactive) | > 100 µM (inactive) | > 100 µM (inactive) | > 100 µM (inactive) | > 100 µM (inactive) | –
6 | COc1cc(C(=O)N[C@H]2CCc3cc(OC)c(OC)c(OC)c3-c3ccc(SC)c(=O)cc32)cc(OC)c1OC | 0.00916 µM (active) | 0.00583 µM (active) | 0.0113 µM (active) | 0.00847 µM (active) | 0.00832 µM (active) | 0.0116 µM (active) | < 0.01 µM (active) | 0.0813 µM (active) | 0.0106 µM (active) | 0.0107 µM (active) | 0.0342 µM (active) | 0.00589 µM (active) | 0.00655 µM (active) | 0.00857 µM (active) | 0.0025 µM (active) | 0.0166 µM (active) | 0.0102 µM (active) | –

From ChEMBL document CHEMBL1201862, “PubChem BioAssay data set” (2004)
